# Results from ChEMBL document CHEMBL1139670, “Novel 4-N-substituted aryl pent-2-ene-1,4-dione derivatives of piperazinyloxazolidinones as antibacterials” (2006).
# Calls of active or inactive are those of the source. The rule behind the calls is not given here.
# Columns and labels:
# Type in all cases: functional
# Bacillus pumilus = assay: Antibacterial activity against Bacillus pumilus ATCC 14348
# Staphylococcus aureus [1] = assay: Antibacterial activity against Staphylococcus aureus ATCC 29213
# Staphylococcus aureus [2] = assay: Antibacterial activity against Staphylococcus aureus ATCC 25923
# Enterococcus faecalis [3] = assay: Antibacterial activity against vancomycin-resistant Enterococcus faecalis ATCC 700802
# Staphylococcus aureus [4] = assay: Antibacterial activity against Staphylococcus aureus ATCC 9144
# Enterococcus faecalis [5] = assay: Antibacterial activity against Enterococcus faecalis ATCC 14506
# Streptococcus pneumoniae = assay: Antibacterial activity against penicillin-resistant Streptococcus pneumoniae ATCC 700904
# Enterococcus faecalis [6] = assay: Antibacterial activity against Enterococcus faecalis ATCC 35550
# Staphylococcus aureus [7] = assay: Antibacterial activity against Staphylococcus aureus ATCC 14154
# Staphylococcus aureus [8] = assay: Antibacterial activity against methicillin-resistant Staphylococcus aureus ATCC 700699
# [9] = system: Staphylococcus epidermidis; assay: Antibacterial activity against Staphylococcus epidermidis ATCC 155
# Staphylococcus aureus [10] = assay: Antibacterial activity against linezolid-resistant Staphylococcus aureus NRS 119
# Streptococcus pyogenes = assay: Antibacterial activity against Streptococcus pyogenes ATCC 14289
Compound,MIC (Bacillus pumilus) [µg/mL],MIC (Staphylococcus aureus [1]) [µg/mL],MIC (Staphylococcus aureus [2]) [µg/mL],MIC (Enterococcus faecalis [3]) [µg/mL],MIC (Staphylococcus aureus [4]) [µg/mL],MIC (Enterococcus faecalis [5]) [µg/mL],MIC (Streptococcus pneumoniae),MIC (Enterococcus faecalis [6]) [µg/mL],MIC (Staphylococcus aureus [7]) [µg/mL],MIC (Staphylococcus aureus [8]) [µg/mL],MIC [9] [µg/mL],MIC (Staphylococcus aureus [10]) [µg/mL],MIC (Streptococcus pyogenes) [µg/mL]
COc1ccc(C(=O)/C=C/C(=O)N2CCN(c3ccc(N4C[C@H](CNC(C)=O)OC4=O)cc3F)CC2)cc1,0.5,0.25,0.5,2,0.5,1,2 µg/mL,0.5,≤ 0.12,1,0.25,> 16,≤ 0.12
CC(=O)NC[C@H]1CN(c2ccc(N3CCN(C(=O)/C=C/C(=O)c4ccc(Br)cc4)CC3)c(F)c2)C(=O)O1,0.12,4,≤ 0.12,> 16,4,2,2 µg/mL,2,2,4,0.25,> 16,
CC(=O)NC[C@H]1CN(c2ccc(N3CCN(C(=O)/C=C/C(=O)c4ccc(NC(C)=O)cc4)CC3)c(F)c2)C(=O)O1,0.5,≤ 0.12,0.5,,≤ 0.12,1,inactive,0.25,≤ 0.12,1,≤ 0.12,> 16,≤ 0.12
CC(=O)NC[C@H]1CN(c2ccc(N3CCN(C(=O)/C=C/C(=O)c4ccccc4)CC3)c(F)c2)C(=O)O1,1,0.25,≤ 0.12,2,≤ 0.12,2,≤ 0.12 µg/mL,0.5,≤ 0.12,≤ 0.12,0.12,4,0.25
CC(=O)NC[C@H]1CN(c2ccc(N3CCN(C(=O)/C=C/c4ccccc4)CC3)c(F)c2)C(=O)O1,0.5,2,1,0.5,2,0.5,0.5 µg/mL,1,2,1,1,> 16,1
